The conditions of series [1]: Pb2+ complex, cited from earlier work.
For series [2] the following is noted: cited from earlier work.
For series [3] the following is noted: pH 7.4.
Series [4] can be described thus: Chelator protonation constants by pH potentiometry. It is filed as physicochemical. As to conditions: I = 0.1 M KCl, 25 °C.
The conditions of series [5]: for pPb (pM), -log [Pb]free: [Pb]tot = 10^-6 M, [L]tot = 10^-5 M; for pPb (pM), -log [Pb]free / log K'Pb (conditional stability constant): pH 7.4, 25 °C, I = 0.1 M.
The nature of a further series: EDTA challenge. It is filed as physicochemical. As to conditions: 20-fold excess EDTA, after 72 hours; 203Pb complex.
Series [6] can be described thus: Non-radioactive Pb2+ challenge. The conditions noted are these: 20-fold excess non-radioactive Pb, after 72 hours; 203Pb complex. Type of series: physicochemical.
Where [7] appears, read: Pb2+ complex, I = 0.1 M KCl, 25 °C.

Read-outs that look alike come from different tables or passages of the source.

Turning to `NC(=O)CN1CCN(CC(N)=O)CCN(CC(N)=O)CCN(CC(N)=O)CC1` [DOTAM, 1,4,7,10-tetrakis(carbamoylmethyl)-1,4,7,10-tetraazacyclododecane], the “log KPbL (thermodynamic stability constant, log KML)” value (from here on “log KPbL”) in series [1] (I = 0.1 M NaNO3) was more than 19. Also, in series [2] (I = 0.1 M NaNO3), the “log K1 (protonation constant)” value is 7.70(1) and the “log K2 (protonation constant)” value is listed as 6.21(1).
Turning to `O=C(O)CN1CCN(CC(=O)O)CCN(CC(=O)O)CCN(CC(=O)O)CC1` [DOTA, 1,4,7,10-tetraazacyclododecane-1,4,7,10-tetraacetic acid], the “log KPbL” value in series [1] (I = 0.1 M NaCl) is 25.3(1)[39]. Further, in series [3], the “log K'Pb (conditional stability constant)” value (shortened to “log K'Pb”) was 15.64. In addition, in series [2] (I = 0.1 M Me4NNO3), the “log K1 (protonation constant)” value is recorded as 12.09, the “log K2 (protonation constant)” value is reported as 9.76, the “log K3 (protonation constant)” value is 4.559 and the “log K4 (protonation constant)” value was 4.09.
Turning to `c1ccc(CN2CCOCCN(Cc3ccccn3)CCN(Cc3ccccn3)CCOCCN(Cc3ccccn3)CC2)nc1` [Crown-4Py, 4,7,13,16-tetrakis(pyridin-2-ylmethyl)-1,10-dioxa-4,7,13,16-tetraazacyclooctadecane], in series [4], the “log K1 (protonation constant)” value is listed as 7.91(4), the “log K2 (protonation constant)” value is listed as 7.33(4), the “log K3 (protonation constant)” value is on record as 4.64(1) and the “log K4 (protonation constant)” value is given as 4.00(6). Also, in series [5] (setting [7]), the “log KPbH2L” value is on record as 3.50(8); the “log KPbHL” value is listed as 5.22(1); the “log KPbL” value is recorded as 13.29(5). For the same molecule, in series [5], the “pPb (pM), -log [Pb]free” value was found to be 13.40 and the “log K'Pb” value stood at 12.45.
For `c1ccc(CN2CCN(Cc3ccccn3)CCN(Cc3ccccn3)CCN(Cc3ccccn3)CC2)nc1` [Cyclen-4Py, 1,4,7,10-tetrakis(pyridin-2-ylmethyl)-1,4,7,10-tetraazacyclododecane], the “complex remained intact, EDTA challenge” value in “EDTA challenge” turned out to be 98.1 ± 0.5%. Further, in series [4], the “log K1 (protonation constant)” value is 10.05(4), the “log K2 (protonation constant)” value is reported as 7.53(2), the “log K3 (protonation constant)” value was 3.54(7) and the “log K4 (protonation constant)” value is given as 2.23(6). Also, in series [6], the “complex remained intact, non-radioactive Pb2+ challenge” value is recorded as 98.0 ± 0.4%. Moreover, in series [5] (setting [7]), the “log KPbHL” value is listed as 2.06(9) and the “log KPbL” value is 19.95(3). Also, in series [5], the “pPb (pM), -log [Pb]free” value is on record as 17.88 and the “log K'Pb” value worked out at 16.93.
With `c1ccc(CN2CCOCCOCCN(Cc3ccccn3)CCOCCOCC2)nc1` [NOON-2Py, 7,16-bis(pyridin-2-ylmethyl)-1,4,10,13-tetraoxa-7,16-diazacyclooctadecane], the “log KPbL” value in series [1] (I = 0.1 M KCl) is reported as 11.67. In series [5], the “pPb (pM), -log [Pb]free” value is 12.29 and the “log K'Pb” value amounted to 11.33. Further, in series [2] (I = 0.1 M KCl), the “log K1 (protonation constant)” value is given as 7.44, the “log K2 (protonation constant)” value is 6.26 and the “log K3 (protonation constant)” value is listed as 1.38.

(Values after article PMC9366509 (Inorganic chemistry, 2022).)
